Laboratory results published in US9156831B2, “Chemical compounds” (ASTRAZENECA AB, priority 2013, dated 2015).

Key:
Assay in all cases: Cell proliferation assay (MTS)
MDAMB157 = assay type: cell-based, human
Method: (§1) The sensitivity of a panel of human cancer cell lines to the effects of compounds was determined in a standard proliferation assay.
(§2) Cells were plated in 96 well plates at densities of 1000-6000 cells per well in RPMI media containing 10% FBS. After incubation at 37° C. for 16 hours, various concentrations of compound were added to the assay plates. After incubation for an additional 72 h, the viable cells were determined by the addition of MTS reagent (Promega #3582) to each well for 2 h. MTS is a tetrazolium salt that is bioreduced by metabolically active cells in the presence of an electron coupling reagent to formazan. The formazan product was then quantitated by absorbance at 490 nm, as an indicator of the relative number of live cells. In order to determine the GI50 (concentration at which growth of cells was inhibited by 50%) the relative number of cells present at the time of drug addition was determined by comparison with the MTS readout before the drug was added, and this value was subtracted from the 72 hr value of untreated cells as a measure of cell growth during the assay.

JJN3 = assay type: cell-based, human
Method: as §1, §2

SNU668 = assay type: cell-based, human
Method: as §1
(§3) Cells were plated in 96 well plates at densities of 1000-6000 cells per well in RPMI media containing 10% FBS. After incubation at 37° C. for 16 hours, various concentrations of compound were added to the assay plates. After incubation for an additional 72 h, the viable cells were determined by the addition of MTS reagent (Promega #3582) to each well for 2 h. […] The formazan product was then quantitated by absorbance at 490 nm, as an indicator of the relative number of live cells. In order to determine the GI50 (concentration at which growth of cells was inhibited by 50%) the relative number of cells present at the time of drug addition was determined by comparison with the MTS readout before the drug was added, and this value was subtracted from the 72 hr value of untreated cells as a measure of cell growth during the assay.

SU8686 = assay type: cell-based, human
Method: as §1, §3

SNU739 = assay type: cell-based, human
Method: (§4) The sensitivity of a panel of human cancer cell lines to the effects of compounds was determined in a standard proliferation assay. Cell lines were sourced through the AstraZeneca Cell Bank.
as §2

C99 = assay type: cell-based, human
Method: as §1, §2

HCC15 = assay type: cell-based, human
Method: as §1, §2

[…] = assay type: cell-based, human
Method: as §1, §2

2313287 = assay type: cell-based, human
Method: as §4, §3

CALU6 = assay type: cell-based, human
Method: as §4, §2

H647 = assay type: cell-based, human
Method: as §1, §2

SNU216 = assay type: cell-based, human
Method: as §1, §3

HPAFII = assay type: cell-based, human
Method: as §1, §2

SNU484 = assay type: cell-based, human
Method: as §1, §2

IM9 = assay type: cell-based, human
Method: as §4, §2

PC9 = assay type: cell-based, human
Method: as §1, §2

QGY7703 = assay type: cell-based, human
Method: as §1, §2

HEP3B = assay type: cell-based, human
Method: as §1, §2

SW1990 = assay type: cell-based, human
Method: as §1, §2

SW403 = assay type: cell-based, human
Method: as §1, §2

PANC89 = assay type: cell-based, human
Method: as §1, §2

T47D = assay type: cell-based, human
Method: as §1, §2

PNT1A = assay type: cell-based, human
Method: as §1, §2

K562 = assay type: cell-based, human
Method: as §1, §2

MOLP8 = assay type: cell-based, human
Method: as §4, §2

HCC1187 = assay type: cell-based, human
Method: as §4, §2

AZ521 = assay type: cell-based, human
Method: as §1, §2

BEL7405 = assay type: cell-based, human
Method: as §4, §2

647V = assay type: cell-based, human
Method: as §1, §3

SNU449 = assay type: cell-based, human
Method: as §1, §3

SNU368 = assay type: cell-based, human
Method: as §1, §2

HCC1569 = assay type: cell-based, human
Method: as §4, §3

SNU761 = assay type: cell-based, human
Method: as §1, §2

RERFLCAI = assay type: cell-based, human
Method: as §1, §2

SKBR3 = assay type: cell-based, human
Method: as §1, §2

HS746T = assay type: cell-based, human
Method: as §1, §2

VMCUB1 = assay type: cell-based, human
Method: as §1, §2

H322 = assay type: cell-based, human
Method: as §1, §3

MCF7 = assay type: cell-based, human
Method: as §1, §2

YAPC = assay type: cell-based, human
Method: as §4, §2

HEPG2 = assay type: cell-based, human
Method: as §4, §2

CALU1 = assay type: cell-based, human
Method: as §1, §2

H520 = test system: H520
Method: as §1, §2

[1] = Homo sapiens, Stomach, PIK3CA WT
[2] = Homo sapiens, Pancreas, PIK3CA WT
[3] = Homo sapiens, Breast, PIK3CA MUT
[4] = Homo sapiens, Breast, PIK3CA WT

Question: `CCn1nc(C2CCN(C(=O)CCO)CC2)nc1-c1cnc(N)c(-c2nnc(C(C)(C)C)o2)n1` [Example 3, 1-(4-(5-(5-amino-6-(5-tert-butyl-1,3,4-oxadiazol-2-yl)pyrazin-2-yl)-1-ethyl-1H-1,2,4-triazol-3-yl)piperidin-1-yl)-3-hydroxypropan-1-one] was tested. Which Category (MDAMB157) did it give?
Answer: Its Category is “Resistant (resistant (GI50>1.0 μM))”.

Question: And the GI50 (MDAMB157; Homo sapiens, MDA-MB-157, Breast, PIK3CA WT)?
Answer: Its GI50 is 30 µM.

Question: What about the Category (JJN3) of the same compound?
Answer: Its Category is “Resistant (resistant (GI50>1.0 μM))”.

Question: What about the GI50 (JJN3; Homo sapiens, JJN-3, Blood/lymph, PIK3CA WT) of the same compound?
Answer: Its GI50 is 30 µM.

Question: What about the Category (SNU668) of the same compound?
Answer: The Category was “Resistant (resistant (GI50>1.0 μM))”.

Question: And the GI50 (SNU668; [1])?
Answer: Its GI50 is 15.5 µM.

Question: And the Category (SU8686)?
Answer: Its Category is “Resistant (resistant (GI50>1.0 μM))”.

Question: What about the GI50 (SU8686; Homo sapiens, SU.86.86, Pancreas, PIK3CA WT) of the same compound?
Answer: Its GI50 is 18 µM.

Question: What about the Category (SNU739) of the same compound?
Answer: The Category was “Resistant (resistant (GI50>1.0 μM))”.

Question: And the GI50 (SNU739; Homo sapiens, SNU-739, Liver, PIK3CA WT)?
Answer: Its GI50 is 25.9 µM.

Question: And the Category (C99)?
Answer: Its Category is “Resistant (resistant (GI50>1.0 μM))”.

Question: And the GI50 (C99; Homo sapiens, Colon, PIK3CA WT)?
Answer: The GI50 was 1.22 µM.

Question: And the Category (HCC15)?
Answer: The Category was “Resistant (resistant (GI50>1.0 μM))”.

Question: And the GI50 (HCC15; Homo sapiens, Lung, PIK3CA WT)?
Answer: The GI50 was 30 µM.

Question: And the GI50 ([…]; Homo sapiens)?
Answer: Its GI50 is 0.792 µM.

Question: What about the Category ([…]; […]) of the same compound?
Answer: The Category was “Sensitive (sensitive (GI50<=1.0 μM))”.

Question: And the Category 2313287?
Answer: Its Category is “Resistant (resistant (GI50>1.0 μM))”.

Question: What about the GI50 2313287; [1] of the same compound?
Answer: The GI50 was 1.34 µM.

Question: And the Category (CALU6)?
Answer: The Category was “Resistant (resistant (GI50>1.0 μM))”.

Question: What about the GI50 (CALU6; Homo sapiens, Calu-6, Lung, PIK3CA WT) of the same compound?
Answer: Its GI50 is 26.2 µM.

Question: And the Category (H647)?
Answer: Its Category is “Resistant (resistant (GI50>1.0 μM))”.

Question: And the GI50 (H647; Homo sapiens, NCI-H647, Lung, PIK3CA WT)?
Answer: Its GI50 is 11.3 µM.

Question: What about the Category (SNU216) of the same compound?
Answer: The Category was “Resistant (resistant (GI50>1.0 μM))”.

Question: And the GI50 (SNU216; Homo sapiens, SNU-216, Stomach, PIK3CA WT)?
Answer: Its GI50 is 1.07 µM.

Question: And the Category (HPAFII)?
Answer: The Category was “Resistant (resistant (GI50>1.0 μM))”.

Question: And the GI50 (HPAFII; Homo sapiens, HPAF-II, Pancreas, PIK3CA WT)?
Answer: Its GI50 is 2.63 µM.

Question: And the Category (SNU484)?
Answer: Its Category is “Resistant (resistant (GI50>1.0 μM))”.

Question: And the GI50 (SNU484; Homo sapiens, SNU-484, Stomach, PIK3CA WT)?
Answer: Its GI50 is 1.79 µM.

Question: And the Category (IM9)?
Answer: The Category was “Resistant (resistant (GI50>1.0 μM))”.

Question: What about the GI50 (IM9; Homo sapiens, IM-9, Blood/lymph, PIK3CA WT) of the same compound?
Answer: The GI50 was 30 µM.

Question: And the Category (PC9)?
Answer: Its Category is “Resistant (resistant (GI50>1.0 μM))”.

Question: What about the GI50 (PC9; Homo sapiens, PC-9, Lung, PIK3CA WT) of the same compound?
Answer: Its GI50 is 30 µM.

Question: What about the Category (QGY7703) of the same compound?
Answer: Its Category is “Resistant (resistant (GI50>1.0 μM))”.

Question: What about the GI50 (QGY7703; Homo sapiens, QGY-7703, Liver, PIK3CA WT) of the same compound?
Answer: The GI50 was 11.1 µM.

Question: And the Category (HEP3B)?
Answer: The Category was “Resistant (resistant (GI50>1.0 μM))”.

Question: What about the GI50 (HEP3B; Homo sapiens, Liver, PIK3CA WT) of the same compound?
Answer: The GI50 was 6.69 µM.

Question: What about the Category (SW1990) of the same compound?
Answer: Its Category is “Resistant (resistant (GI50>1.0 μM))”.

Question: And the GI50 (SW1990; [2])?
Answer: The GI50 was 28.3 µM.

Question: And the Category (SW403)?
Answer: Its Category is “Resistant (resistant (GI50>1.0 μM))”.

Question: What about the GI50 (SW403; Homo sapiens, SW-403, Colon, PIK3CA MUT) of the same compound?
Answer: The GI50 was 2.61 µM.

Question: And the Category (PANC89)?
Answer: Its Category is “Resistant (resistant (GI50>1.0 μM))”.

Question: And the GI50 (PANC89; [2])?
Answer: The GI50 was 1.62 µM.

Question: And the Category (T47D)?
Answer: The Category was “Sensitive (sensitive (GI50<=1.0 μM))”.

Question: What about the GI50 (T47D; [3]) of the same compound?
Answer: The GI50 was 0.198 µM.

Question: What about the Category (PNT1A) of the same compound?
Answer: The Category was “Resistant (resistant (GI50>1.0 μM))”.

Question: And the GI50 (PNT1A; Homo sapiens, Prostate, PIK3CA WT)?
Answer: Its GI50 is 2.17 µM.

Question: What about the Category (K562) of the same compound?
Answer: The Category was “Resistant (resistant (GI50>1.0 μM))”.

Question: What about the GI50 (K562; Homo sapiens, Blood/lymph, PIK3CA WT) of the same compound?
Answer: Its GI50 is 30 µM.

Question: What about the Category (MOLP8) of the same compound?
Answer: The Category was “Resistant (resistant (GI50>1.0 μM))”.

Question: And the GI50 (MOLP8; Homo sapiens, MOLP-8, Blood/lymph, PIK3CA WT)?
Answer: Its GI50 is 3.29 µM.

Question: What about the Category (HCC1187) of the same compound?
Answer: The Category was “Sensitive (sensitive (GI50<=1.0 μM))”.

Question: What about the GI50 (HCC1187; [4]) of the same compound?
Answer: Its GI50 is 0.509 µM.

Question: And the Category (AZ521)?
Answer: Its Category is “Resistant (resistant (GI50>1.0 μM))”.

Question: And the GI50 (AZ521; Homo sapiens, AZ-521, Duodenum, PIK3CA WT)?
Answer: The GI50 was 2.06 µM.

Question: What about the Category (BEL7405) of the same compound?
Answer: The Category was “Resistant (resistant (GI50>1.0 μM))”.

Question: And the GI50 (BEL7405; Homo sapiens, Liver, PIK3CA WT)?
Answer: The GI50 was 8.11 µM.

Question: What about the Category (647V) of the same compound?
Answer: Its Category is “Resistant (resistant (GI50>1.0 μM))”.

Question: And the GI50 (647V; Homo sapiens, Bladder, PIK3CA WT)?
Answer: Its GI50 is 5.46 µM.

Question: What about the Category (SNU449) of the same compound?
Answer: The Category was “Resistant (resistant (GI50>1.0 μM))”.

Question: And the GI50 (SNU449; Homo sapiens, SNU-449, Liver, PIK3CA WT)?
Answer: The GI50 was 5.41 µM.

Question: And the Category (SNU368)?
Answer: Its Category is “Resistant (resistant (GI50>1.0 μM))”.

Question: What about the GI50 (SNU368; Homo sapiens, Liver, PIK3CA WT) of the same compound?
Answer: The GI50 was 1.6 µM.

Question: And the Category (HCC1569)?
Answer: Its Category is “Resistant (resistant (GI50>1.0 μM))”.

Question: What about the GI50 (HCC1569; [4]) of the same compound?
Answer: Its GI50 is 1.37 µM.

Question: And the Category (SNU761)?
Answer: Its Category is “Resistant (resistant (GI50>1.0 μM))”.

Question: And the GI50 (SNU761; Homo sapiens, Liver, PIK3CA WT)?
Answer: The GI50 was 18.5 µM.

Question: What about the GI50 (RERFLCAI; Homo sapiens, Lung, PIK3CA WT) of the same compound?
Answer: Its GI50 is 30 µM.

Question: What about the Category (RERFLCAI; RERFLCAI) of the same compound?
Answer: Its Category is “Resistant (resistant (GI50>1.0 μM))”.

Question: What about the Category (SKBR3) of the same compound?
Answer: The Category was “Resistant (resistant (GI50>1.0 μM))”.

Question: And the GI50 (SKBR3; Homo sapiens, SK-BR-3, Breast, PIK3CA WT)?
Answer: The GI50 was 1.59 µM.

Question: And the Category (HS746T)?
Answer: The Category was “Resistant (resistant (GI50>1.0 μM))”.

Question: And the GI50 (HS746T; [1])?
Answer: Its GI50 is 5.98 µM.

Question: And the Category (VMCUB1)?
Answer: Its Category is “Sensitive (sensitive (GI50<=1.0 μM))”.

Question: What about the GI50 (VMCUB1; Homo sapiens, VM-CUB-1, Bladder, PIK3CA MUT) of the same compound?
Answer: Its GI50 is 0.732 µM.

Question: And the Category (H322)?
Answer: Its Category is “Resistant (resistant (GI50>1.0 μM))”.

Question: What about the GI50 (H322; Homo sapiens, NCI-H322, Lung, PIK3CA WT) of the same compound?
Answer: The GI50 was 8.23 µM.

Question: What about the Category (MCF7) of the same compound?
Answer: Its Category is “Sensitive (sensitive (GI50<=1.0 μM))”.

Question: What about the GI50 (MCF7; [3]) of the same compound?
Answer: The GI50 was 0.309 µM.

Question: What about the Category (YAPC) of the same compound?
Answer: The Category was “Resistant (resistant (GI50>1.0 μM))”.

Question: And the GI50 (YAPC; [2])?
Answer: The GI50 was 30 µM.

Question: And the Category (HEPG2)?
Answer: The Category was “Resistant (resistant (GI50>1.0 μM))”.

Question: And the GI50 (HEPG2; Homo sapiens, Liver, PIK3CA WT)?
Answer: Its GI50 is 30 µM.

Question: And the Category (CALU1)?
Answer: The Category was “Resistant (resistant (GI50>1.0 μM))”.

Question: And the GI50 (CALU1; Homo sapiens, Calu-1, Lung, PIK3CA WT)?
Answer: The GI50 was 16 µM.

Question: And the Category (H520; H520)?
Answer: The Category was “Resistant (resistant (GI50>1.0 μM))”.

Question: And the GI50 (H520; Homo sapiens, NCI-H520)?
Answer: Its GI50 is 6.62 µM.
